Measured values as given in patent US8007800B2, “Methods for treating bone cancer pain by administering a nerve growth factor antagonist antibody” (Pfizer Inc., priority 2004, dated 2011).

Columns and labels:
[1] = test system: C3H/HeJ mice injected with NCTC 2472 osteolytic murine sarcoma cells into the femur; experiment: Example 2: murine sarcoma bone cancer pain model, ongoing and palpation-evoked pain behaviors; type: in vivo, mouse; details: days 10 and 14, vs sarcoma+vehicle
human NGF = human NGF (Homo sapiens, UniProt P01138); experiment: Binding affinity of Fab fragments to NGF (BIAcore surface plasmon resonance); details: measured using Fab fragments
Procedure: The binding affinity of an anti-NGF antibody to NGF (such as hNGF) can be about 0.10 to about 1.0 nM, about 0.10 nM to about 0.80 nM, about 0.15 to about 0.75 nM and about 0.18 to about 0.72 nM. […] In some embodiment, the binding affinity is about 10 nM. In other embodiments, the binding affinity is less than about 10 nM. […] As is well known in the art, binding affinity can be expressed as KD, or dissociation constant, and an increased binding affinity corresponds to a decreased KD.
One way of determining binding affinity of antibodies to NGF is by measuring binding affinity of monofunctional Fab fragments of the antibody. To obtain monofunctional Fab fragments, an antibody (for example, IgG) can be cleaved with papain or expressed recombinantly. The affinity of an anti-NGF Fab fragment of an antibody can be determined by surface plasmon resonance (BIAcore3000™ surface plasmon resonance (SPR) system, BIAcore, INC, Piscaway N.J.). CM5 chips can be activated with N-ethyl-N′-(3-dimethylaminopropyl)-carbodiinide hydrochloride (EDC) and N-hydroxysuccinimide (NHS) according to the supplier's instructions. […] The concentrations of the Fab proteins are determined by ELISA and/or SDS-PAGE electrophoresis using a Fab of known concentration (as determined by amino acid analysis) as a standard. […] Equilibrium dissociation constant (KD) values are calculated as koff/kon. […]

Sequence of human NGF (P01138 122-241): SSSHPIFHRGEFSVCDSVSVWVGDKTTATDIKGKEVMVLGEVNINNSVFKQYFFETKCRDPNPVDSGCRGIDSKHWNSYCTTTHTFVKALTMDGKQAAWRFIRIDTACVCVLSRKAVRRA

Compound	ongoing and movement-evoked guarding behaviors ([1]; morphine sulfate 10 mg/kg i.p. 15 min prior to testing)	ongoing and movement-evoked guarding behaviors ([1]; morphine sulfate 30 mg/kg i.p. 15 min prior to testing)	Kd (human NGF)
CN1CC[C@]23c4c5ccc(O)c4O[C@H]2[C@@H](O)C=C[C@H]3[C@H]1C5.O=S(=O)(O)O [morphine sulfate]	significantly reduced	significantly reduced	–
antibody E3: humanized mouse anti-NGF monoclonal antibody; human IgG2a constant region A330P331 to S330S331, kappa light chain, variable regions SEQ ID NO:1 and 2	–	–	~0.07 nM
